Holding throughout (test): NCI-60 cell line screen, 48 h
For test [1], the system named is NCI-H226.
For test [2], the system named is UACC-257.
Test [3] deals with SK-OV-3.
In test [4] the test system is OVCAR-8.
The subject of test [5] is IGROV-1.
For test [6], the system named is SNB-19.
In test [7] the test system is HL-60.
In test [8] the test system is HCT-116.
The subject of test [9] is NCI-H460.
The subject of test [10] is UO-31.
Test [11] has as its system OVCAR-4.
Test [12] deals with A549.
Test [13] relates to SK-MEL-28.
The subject of test [14] is CAKI-1.
The subject of test [15] is SK-MEL-2.
The test system of test [16] is RXF 393.
Test [17] deals with SF-539.
In test [18] the test system is U-251.
Test [19] relates to UACC-62.
The subject of test [20] is SR.

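How tested: cells in 96-well plates exposed to compound for 48 hours at five concentrations. GI50: concentration for 50% inhibition of growth.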 Calls of active or inactive are those of the source. Cut-off read from the data, not from the text of the source: active = GI50 up to about 1.1 µM and inactive = higher. Where a SMILES comes first, the peptide text is derived from it. The star is where a group is joined. OSu = O=C1CCC(=O)N1O*; OBn = c1ccc(CO*)cc1; Bn = c1ccc(C*)cc1 Where only a bound is given, the exact number is not on record here.

Take `CSCSCC(CO)NC(=O)/C=C\c1c(C)[nH]c(=O)[nH]c1=O` (configuration not stated): the GI50 was 35 µM (inactive) in [1]; 48.6 µM (inactive) in test [2]; 11.1 µM (inactive) in test [3]; 10 µM (inactive) in [4]; 23.7 µM (inactive) in test [5]; 14.7 µM (inactive) in [6]. Besides, the GI50 is 9.51 µM (inactive) in [7]; 11.4 µM (inactive) in [8]; 12.2 µM (inactive) in [9]; 14.9 µM (inactive) in test [10]; 1.23 µM (inactive) in [11]; 77.1 µM (inactive) in [12]. Also, the GI50 was 28.6 µM (inactive) in [13]; 2.88 µM (inactive) in [14]; 14.2 µM (inactive) in [15]; 26.5 µM (inactive) in [16]; 32.9 µM (inactive) in test [17]; 7.57 µM (inactive) in test [18]. In test [19], the GI50 is 22.4 µM (inactive).
For the molecule `COC(=O)[C@@H](O)[C@](O)(CCC(C)C)C(=O)O[C@@H]1C(OC)=C[C@]23CCCN2CCc2cc4c(cc2[C@H]13)OCO4`, the GI50 was 1.64 µM (inactive) in test [1]; 1.82 µM (inactive) in test [2]; 1.17 µM (inactive) in test [3]; 1.88 µM (inactive) in test [4]; 1.07 µM (active) in [5]; 0.373 µM (active) in test [6]. Further, the GI50 in [7] was 0.349 µM (active); in [8], 0.407 µM (active); in test [9], 0.325 µM (active); in test [10], 1.5 µM (inactive); in [11], 1.06 µM (active); in test [12], 0.951 µM (active). Besides, the GI50 in [13] was 0.518 µM (active); in test [14], 1.77 µM (inactive); in test [15] it was 2.19 µM (inactive); in test [16], 0.689 µM (active); in [17] it was 0.673 µM (active); in [18] it was 0.869 µM (active). Further, in [19], the GI50 was 3.9 µM (inactive).
For the molecule `N/C(=N\O)N/N=C\c1ccccc1O`, the GI50 is 16 µM (inactive) in test [1]; 16.2 µM (inactive) in test [2]; 31.3 µM (inactive) in test [3]; 3.2 µM (inactive) in test [4]; 11.3 µM (inactive) in [5]; 18.9 µM (inactive) in test [6]. The GI50 in [7] is 0.977 µM (active); in test [8], 4.85 µM (inactive); in test [9], 3.29 µM (inactive); in [10] it was 7.98 µM (inactive); in test [11] it was 4.06 µM (inactive); in test [12], 6.01 µM (inactive). For the same molecule, the GI50 in [13] is 19.3 µM (inactive); in [14], 3.84 µM (inactive); in test [15] it was 21 µM (inactive); in test [16], 7.98 µM (inactive); in test [17], 14.5 µM (inactive); in [18] it was 8.34 µM (inactive). Moreover, the GI50 in [19] is 5.64 µM (inactive).
As to `COc1ccc(C2C(=O)C(Cl)N2Nc2nc(C)cc(O)n2)cc1OC` (configuration not stated), the GI50 is 40.6 µM (inactive) in test [2]; 26.3 µM (inactive) in [4]; 10.9 µM (inactive) in test [5]; 40.5 µM (inactive) in test [6]; 13.9 µM (inactive) in test [7]; 18.8 µM (inactive) in test [20]. Moreover, the GI50 was 36.3 µM (inactive) in test [8]; 26.8 µM (inactive) in test [9]; 29.9 µM (inactive) in [10]; 30.8 µM (inactive) in [11]; 59.7 µM (inactive) in test [12]; 43.3 µM (inactive) in test [13]. For the same molecule, the GI50 was 22.6 µM (inactive) in test [15]; 25.2 µM (inactive) in test [16]; 24 µM (inactive) in test [17]; 26.2 µM (inactive) in test [18]; 28.4 µM (inactive) in test [19].
Take `CCCCCCCCC1=CCC(CN(C)C)C1=O` (configuration not stated): the GI50 was > 51.4 µM (inactive) in [1]; 20.9 µM (inactive) in test [2]; > 100 µM (inactive) in test [3]; 17.9 µM (inactive) in test [4]; 19.4 µM (inactive) in [5]; > 55.2 µM (inactive) in test [6]. In addition, the GI50 in test [7] is 12 µM (inactive); in test [8] it was 19.4 µM (inactive); in [9], 16.3 µM (inactive); in [10], 17 µM (inactive); in test [11], 23.6 µM (inactive); in test [12] it was > 100 µM (inactive). Further, the GI50 in [13] was 20.1 µM (inactive); in [15] it was 21.3 µM (inactive); in test [16], 19.7 µM (inactive); in [17] it was 19.7 µM (inactive); in test [18], 18.1 µM (inactive); in [19], 18.1 µM (inactive).
Consider `[N-]=[N+]=NC1(c2ccccc2)C(=O)Nc2ccccc2C1=O` (configuration not stated), for which the GI50 in test [2] was 78.2 µM (inactive); in test [3] it was 55.6 µM (inactive); in [5], 37.1 µM (inactive); in test [6], 38 µM (inactive); in [7] it was 34.5 µM (inactive); in test [20], 41.2 µM (inactive). Moreover, the GI50 in test [8] is 30.3 µM (inactive); in [9], 37.5 µM (inactive); in test [10], 22.1 µM (inactive); in [11] it was 54.7 µM (inactive); in [12] it was 76.4 µM (inactive); in test [13], 56.2 µM (inactive). Further, the GI50 in test [14] was 32.2 µM (inactive); in [15], 24.4 µM (inactive); in test [16], 25.5 µM (inactive); in [17], 36.8 µM (inactive); in test [18], 41.2 µM (inactive); in test [19], 19.1 µM (inactive).
Take `COc1ccc2c(c1)C/C(=C\c1ccc(O)c(OC)c1)C2=O`: the GI50 is > 100 µM (inactive) in [1]; > 100 µM (inactive) in [3]; > 100 µM (inactive) in test [4]; > 10 µM (inactive) in [5]; > 100 µM (inactive) in test [6]; > 100 µM (inactive) in test [7]. In addition, the GI50 in test [20], in test [9], in test [10], in test [11], in test [12] and in test [13] was > 100 µM (inactive) in each case. The GI50 in test [14], in test [17], in [18] and in test [19] was > 100 µM (inactive) in each case.
With `NC1CC(=O)c2sc(I)cc21` (configuration not stated), the GI50 was > 100 µM (inactive) in [2]; > 100 µM (inactive) in [3]; > 100 µM (inactive) in [4]; > 100 µM (inactive) in test [5]; > 100 µM (inactive) in test [6]; 18.7 µM (inactive) in [7]. Also, the GI50 was 8.39 µM (inactive) in test [20]; 78.9 µM (inactive) in [8]; 69.8 µM (inactive) in [9]; > 100 µM (inactive) in test [10]; > 100 µM (inactive) in test [12]; > 100 µM (inactive) in test [13]. The GI50 in test [14] was 40.3 µM (inactive); in test [15], > 100 µM (inactive); in test [16], > 100 µM (inactive); in test [17] it was > 100 µM (inactive); in [18] it was > 100 µM (inactive); in [19], > 100 µM (inactive).
`CN1C(CC(O)c2ccccc2)CCCC1CC(O)(c1ccccc1)c1ccccc1` (configuration not stated): the GI50 was 21.1 µM (inactive) in test [1]; 17.6 µM (inactive) in test [2]; 21.4 µM (inactive) in [3]; 20.8 µM (inactive) in [4]; 17.2 µM (inactive) in [5]; 17.1 µM (inactive) in test [6]. In addition, the GI50 is 17.3 µM (inactive) in test [7]; 18.7 µM (inactive) in [20]; 14.9 µM (inactive) in [8]; 8.36 µM (inactive) in [10]; 22.1 µM (inactive) in test [12]; 16 µM (inactive) in test [13]. Further, the GI50 in test [14] was 75.2 µM (inactive); in test [16] it was 14.9 µM (inactive); in [17], 13.6 µM (inactive); in test [18] it was 15.1 µM (inactive); in [19], 21 µM (inactive).
As to `CC(C)CC(NC(=O)C(N)CCC(=O)OCc1ccccc1)C(=O)NC(COCc1ccccc1)C(=O)NC(Cc1ccccc1)C(=O)ON1C(=O)CCC1=O` (configuration not stated) (H-E(OBn)LS(Bn)F-OSu; configuration not given here), the GI50 in [2] is 28.3 µM (inactive); in [3], 25.4 µM (inactive); in test [4] it was 31.6 µM (inactive); in test [5], 23.4 µM (inactive); in [6], 30.5 µM (inactive); in [20], 28.6 µM (inactive). Also, the GI50 in test [8] is 16.4 µM (inactive); in test [9] it was 32.7 µM (inactive); in test [10] it was 23.6 µM (inactive); in [11], 27.8 µM (inactive); in [12], 33.6 µM (inactive); in [13] it was 22.1 µM (inactive). Besides, the GI50 in [14] is 28.8 µM (inactive); in [15] it was 30.8 µM (inactive); in [16], 21.8 µM (inactive); in [18], 24.4 µM (inactive); in test [19], 26.1 µM (inactive).
For the molecule `CC(C)=CCc1c(O)ccc2ccc(=O)oc12` [OSTHENOL], the GI50 in [1] was 47.6 µM (inactive); in test [2], 33 µM (inactive); in test [3], > 100 µM (inactive); in test [4] it was 53 µM (inactive); in test [5], > 68.5 µM (inactive); in test [6] it was > 51.9 µM (inactive). Further, the GI50 in [7] is 28.2 µM (inactive); in [8] it was 57.4 µM (inactive); in test [9], > 73.5 µM (inactive); in test [10], 29.4 µM (inactive); in test [11], 37.8 µM (inactive); in [12] it was 5.83 µM (inactive). In addition, the GI50 in [13] is 49.4 µM (inactive); in test [14] it was > 61.5 µM (inactive); in test [15], 45.7 µM (inactive); in test [16] it was 38.5 µM (inactive); in [17], 24 µM (inactive); in [18] it was 21.9 µM (inactive). In addition, the GI50 in test [19] was 44.6 µM (inactive).

The record behind these values is ChEMBL document CHEMBL1201862, “PubChem BioAssay data set” (2004).
